The values below are quoted from earlier work in patent publication US20040092491A1, “Method of treating sepsis-induced ARDS” (The Research Foundation of State University of New York, priority 2002, published 2004).

Counter-ions that a name gives are not always drawn.

For data set [1], the system named is neutrophil elastase. The conditions noted are these: LPS-induced acute lung injury, guinea pig; cited from earlier work.
For data set [2] the following is noted: single dose of two 100 mg minocycline HCl tablets, adult humans; cited from earlier work.
For data set [3] the following is noted: 250 mg every six hours over a twenty-four hour period; cited from earlier work.
The subject of data set [4] is microbes. The conditions noted are these: based on steady-state pharmacokinetics; cited from earlier work.

Turning to `CC(C)(C)C(=O)Oc1ccc(S(=O)(=O)Nc2ccccc2C(=O)NCC(=O)O)cc1` [ONO-5046, N-[2-[4-(2,2-dimethylpropionyloxy)-phenylsulfonylamino]benzoyl]aminoacetic acid], in data set [1], the Neutrophil elastase activity entry is given as “inhibits”. Regarding `CN(C)c1ccc(O)c2c1C[C@H]1C[C@H]3[C@H](N(C)C)C(O)=C(C(N)=O)C(=O)[C@@]3(O)C(O)=C1C2=O` [minocycline HCl], the “Average minocycline serum level” value in data set [2] is 2.24 µg/mL. For `CN(C)[C@@H]1C(O)=C(C(N)=O)C(=O)[C@@]2(O)C(O)=C3C(=O)c4c(O)cccc4[C@@](C)(O)[C@H]3C[C@@H]12` [tetracycline HCl], in data set [3], the Peak plasma concentration entry was “approximately 3 μg/ml”. For the compound `CN(C)[C@@H]1C(O)=C(C(N)=O)C(=O)[C@@]2(O)C(O)=C3C(=O)c4c(O)cccc4[C@@](C)(O)[C@H]3C[C@@H]12` [tetracycline, Tetracycline], the “Plasma antibiotic threshold level” value in data set [4] is 0.5 µg/mL.
